Legend:
[1] = target: T1, BRAF-GTP-KRAS-G12C complex (Homo sapiens, UniProt P01116+P62937, G12C); test: KRAS-BRAF complex disruption through competition with CYPA-compound by TR-FRET; conditions: biochemical BRAF-KRAS G12C-GTP disruption assay EC50, with CYPA
T1 construct: 50 nM of His6-KRas G12C-GTP (1-169); 500 nM of tagless CypA (1-165)
Protocol: In this example, TR-FRET was used to measure the compound-facilitated disruption of a KRAS-BRAF complex. A mixture of tagless Cyclophilin A, His6-KRAS G12C-GMP-PNP, and GST-BRAF RAS binding domain was added to a 384-well assay plate containing compounds of the invention and incubated for 3 hours. A mixture of Anti-His Eu-W1024 and anti-GST allophycocyanin was then added and the reaction was incubated for an additional 1.5 hours. TR-FRET signal was read on an EnVision microplate reader (Perkin Elmer, Ex 320 nm, Em 665/615 nm). Compounds that facilitate disruption of a KRAS_BRAF complex were identified as those eliciting a decrease in the TR-FRET ratio relative to DMSO control wells. To determine the presenter-dependence of the compound-mediated KRAS-BRAF complex disruption, Cyclophilin A was left out of the initial incubation (see Table 5). To determine G12C specificity of the compound-mediated KRAS-BRAF complex disruption, wild-type KRAS was used instead of G12C KRAS (see Table 5).
Reagents and Instrument • Tagless CYPA; 519 μM in PBS buffer, pH 7.4 • GST BRAF; 110 μM in PBS buffer, pH 7.4 • His6-KRASG12C-GMP-PNP; 50 μM in PBS buffer, pH 7.4 • His6-KRASWT-GMP-PNP; 40 μM in PBS buffer, pH 7.4 • Anti-His Eu-W1024 (LANCE® Eu-W1024; Perkin Elmer) • Anti-GST allophycocyanin (Anti-GST IgG conjugated to SureLight®-Allophycocyanin; Perkin Elmer; Product Number AD0059G) • Test compounds, 10 mM in 100% DMSO • EnVision (Perkin Elmer) • Combi MultiDrop liquid dispenser with 8-channel small volume cassette • 384-well ProxiPlate (black)
Experimental Protocol • 1. Use Mosquito to dispense 100 nL/well of compounds (varying concentration in […]) into 384-well black ProxiPlate to make assay-ready-plate (ARP). • 2. Make assay buffer containing 25 mM Hepes pH 7.3, 100 mM NaCl, 5 mM MgCl2, 0.05% BSA, and 0.002% Tween-20. • 3. Make PRE-MIX A: delivers final concentrations of 50 nM of His6-KRas G12C-GTP (1-169) and 500 nM of tagless CypA (1-165) in assay buffer. • a. For presenter dependence experiments, omit addition of tagless CypA • b. For G12C/wt specificity experiments, substitute His6-KRas WT-GTP (1-169) for His6-KRas G12C-GTP (1-169) • 4. Use MultiDrop Combi to dispense PRE-MIX A into ARP, 7 μl/well. Incubate 3 hr at room temperature. • 5. Make PRE-MIX B: delivers final concentrations of 10 nM of anti-His Eu-W1024 and 50 nM of anti-GST APC. • 6. Use MultiDrop Combi to dispense PRE-MIX B into ARP, 3 μl/well. Shake briefly on Combi and incubate 1.5 hr at room temperature. • 7. Read on EnVision (Ex: 320 nm; Em1: 615 nm; Em2: 665 nm). • 8. Data is processed using Dotmatics. Curves are fit using a 4-parameter non-linear fit to determine the EC50 value for formation of the ternary complex.

cyclophilin A (CYPA) = cyclophilin A (CYPA) (Homo sapiens, UniProt P62937); test: CYPA-compound binary complex formation by SPR; conditions: read-out: CYPA Binding Affinity
Protocol: In order to determine the affinity of compounds of the invention for cyclophilin A (CYPA), we employed surface plasmon resonance binding analysis using the following reagents, instruments and protocol as supplied by the instrument manufacturer.
Reagents and Instrument • 1. Instrument: Biacore S200 (GE Healthcare Life Sciences) • 2. Running buffer: 1×HBS-P+ (1×HBS supplemented with 0.05% Tween20), pH7.4, and 2% DMSO. • 3. Ligand: CypA-Avi • 4. Analyte: Serial dilution of WDB compounds from 50 μM to 0 μM, 2-fold dilution, 10 points (10 mM stock concentration). • 5. Sensor kit: Biotin CAPture Kit (BR28-9202-34, GE Healthcare Life Sciences) • 6. Regeneration buffer: 1 volume of 1 M NaOH and 3 volumes of 8 M guanidine hydrochloride (supplied with CAPture Kit, BR28-9202-34, GE Healthcare Life Sciences)
Experimental Procedure • 1. Capture of CAPreagent: 2 μl/min for 60 seconds. • 2. Immobilization of ligand CypA: Use Fc1 as the reference cell; immobilize CypA at 4 μg/ml using 5 μl/min flowrate on Fc2 (60s), Fc3 (80s) and Fc4 (80s), respectively. • 3. Binding of analytes: Inject WDB compound dilutions sequentially at 50 μl/min for association of 60 seconds. And then let it dissociates in buffer at 50 μl/min for 60 seconds. • 4. Regeneration: 2 injections of regeneration buffer at 30 μl/min for 60 seconds to regenerate the chip surface. • 5. Solvent correction: Run solvent correction at beginning and the end of the run. If run more than 6 compounds, add additional solvent correction every 6 compounds. • 6. Data fitting with built-in Biacore Evaluation Software: Steady-state fitting.

| EC50 [1] [µM] | Kd (cyclophilin A (CYPA)) [µM] | SMILES |
| --- | --- | --- |
| > 5 | 5 to 15 | C=CC(=O)N1CCN([C@H](C(=O)N[C@H]2Cc3cncc(c3)-c3ccc4nc(CC)n(c4c3)CCCOC(=O)[C@@H]3CCCN(N3)C2=O)C(C)C)C1=O [Compound 4, (2S)-2-(3-acryloyl-2-oxoimidazolidin-1-yl)-N-((6^3S,4S)-12-ethyl-5,7-dioxo-6^1,6^2,6^3,6^4,6^5,6^6-hexahydro-1^1H-8-oxa-1(6,1)-benzo[d]imidazola-6(1,3)-pyridazina-2(3,5)-pyridinacycloundecaphane-4-yl)-3-methylbutanamide] |
| 0.5 to 5 | ≤ 5 | CC(C)[C@@H](C(=O)N[C@H]1Cc2cc(O)cc(c2)-c2ccc3nc(-c4ccccc4C#N)n(c3c2)CCCOC(=O)[C@@H]2CCCN(N2)C1=O)N(C)C(=O)C1CN(C(=O)CCl)C1 [Compound 167] |
| 0.5 to 5 | 5 to 15 | Cc1nc2ccc3cc2n1CC(C)(C)COC(=O)[C@@H]1CCCN(N1)C(=O)[C@@H](NC(=O)[C@H](C(C)C)N1CCN(C(=O)CCl)CC1=O)Cc1cc(O)cc-3c1 [Compound 146] |
| 0.5 to 5 | > 15 | CC1CCn2cnc3ccc(cc32)-c2cc(O)cc(c2)CC(NC(=O)C(C(C)C)N(C)C(=O)C2CN(C(=O)CCl)C2)C(=O)N2CCCC(N2)C(=O)O1 (mixture of isomers) [Compound 140] |
| 0.5 to 5 | > 15 | Cc1nc2ccc3cc2n1C[C@@H](C)COC(=O)[C@@H]1CCCN(N1)C(=O)[C@@H](NC(=O)[C@H](C(C)C)N(C)C(=O)C1CN(C(=O)CCl)C1)Cc1cc(O)cc-3c1 [Compound 148] |
| 0.5 to 5 | > 15 | CC1COC(=O)[C@@H]2CCCN(N2)C(=O)[C@@H](NC(=O)[C@H](C(C)C)N(C)C(=O)C2CN(C(=O)CCl)C2)Cc2cc(O)cc(c2)-c2ccc3c(C#N)cn(c3c2)C1 (single isomer, unassigned) [Compound 88] |
| 0.5 to 5 | ≤ 5 | CC(C)C(C(=O)NC1Cc2cc(O)cc(c2)-c2ccc3c(C#N)cn(c3c2)CCCOC(=O)C2CCCN(N2)C1=O)N(C)C(=O)C1CN(C(=O)CCl)C1 (stereo not drawn) [Compound 101] |
| > 5 | ≤ 5 | C=CC(=O)N1CCN([C@H](C(=O)N[C@H]2Cc3cc(O)cc(c3)-c3ccc4c(=O)n(C)n(c4c3)CCCOC(=O)[C@@H]3CCCN(N3)C2=O)C(C)C)C1=O [Compound 174] |
| 0.5 to 5 | 5 to 15 | C=CC(=O)N1CC(C(=O)N(C)[C@H](C(=O)N[C@H]2Cc3cc(O)cc(c3)-c3ccc4nc(C)n(c4c3)CC(C)(C)COC(=O)[C@@H]3CCCN(N3)C2=O)C(C)C)C1 [Compound 145] |
| 0.5 to 5 | 5 to 15 | Cc1nc2ccc3cc2n1CC(O)COC(=O)C1CCCN(N1)C(=O)C(NC(=O)C(C(C)C)N(C)C(=O)C1CN(C(=O)CCl)C1)Cc1cc(O)cc-3c1 (mixture of isomers) [Compound 154] |
|  | ≤ 5 | CC(C)[C@@H](C(=O)N[C@H]1Cc2cc(O)cc(c2)-c2ccc3ncn(c3c2)CCCOC(=O)[C@@H]2CCCN(N2)C1=O)N(C)C(=O)C1CN(C(=O)CCl)C1 [Compound 234, 1-(2-chloroacetyl)-N-((2S)-1-(((6^3S,4S)-2^5-hydroxy-5,7-dioxo-6^1,6^2,6^3,6^4,6^5,6-hexahydro-1^1H-8-oxa-1(6,1)-benzo[d]imidazola-6(1,3)-pyridazina-2(1,3)-benzenacycloundecaphane-4-yl)amino)-3-methyl-1-oxobutan-2-yl)-N-methylazetidine-3-carboxamide] |
| > 5 | ≤ 5 | C=CC(=O)N1CCN([C@H](C(=O)N[C@H]2Cc3cc(O)cc(c3)-c3ccc4nccc(c4c3)OCCOC(=O)[C@@H]3CCCN(N3)C2=O)C(C)C)C1=O [Compound 2, (2S)-2-(3-acryloyl-2-oxoimidazolidin-1-yl)-N-((6^3S,4S)-2^5-hydroxy-5,7-dioxo-6^1,6^2,6^3,6^4,6^5,6^6-hexahydro-8,11-dioxa-1(6,4)-quinolina-6(1,3)-pyridazina-2(1,3)-benzenacycloundecaphane-4-yl)-3-methylbutanamide] |
| > 5 | 5 to 15 | CC1=C(C)C(=O)N(CC(=O)N(C)[C@H](C(=O)N[C@H]2Cc3cc(O)cc(c3)-c3ccc4ncn(c4c3)CCCOC(=O)[C@@H]3CCCN(N3)C2=O)C(C)C)C1=O [Compound 153] |
| 0.5 to 5 | 5 to 15 | CC1=C(C)C(=O)N(CC(=O)N(C)[C@H](C(=O)N[C@H]2Cc3cc(O)cc(c3)-c3ccc4nc(C)n(c4c3)CC(C)(C)COC(=O)[C@@H]3CCCN(N3)C2=O)C(C)C)C1=O [Compound 171] |
| 0.5 to 5 | 5 to 15 | CC(C)[C@@H](C(=O)N[C@H]1Cc2cc(O)cc(c2)-c2ccc3nc(C4CCOCC4)n(c3c2)CCCOC(=O)[C@@H]2CCCN(N2)C1=O)N(C)C(=O)C1CN(C(=O)CCl)C1 [Compound 170] |
| > 5 | ≤ 5 | C=CC(=O)N1CCN([C@H](C(=O)N[C@H]2Cc3cc(O)cc(c3)-c3ccc4ccn(c4c3)CCCOC(=O)[C@@H]3CCCN(N3)C2=O)C(C)C)C1=O [Compound 93] |
| ≤ 0.5 | 5 to 15 | CC(C)C(C(=O)NC1Cc2cc(O)cc(c2)-c2ccc3c(C#N)cn(c3c2)CC(C)(C)COC(=O)C2CCCN(N2)C1=O)N(C)C(=O)C1CN(C(=O)CCl)C1 (stereo not drawn) [Compound 98] |
| > 5 | 5 to 15 | Cc1nc2ccc3cc2n1CC(C)(C)COC(=O)[C@@H]1CCCN(N1)C(=O)[C@@H](NC(=O)[C@H](C(C)C)N(C)C(=O)CN1CC=CC1=O)Cc1cc(O)cc-3c1 [Compound 144] |
| ≤ 0.5 | ≤ 5 | COc1ccccc1-c1nc2ccc3cc2n1CCCOC(=O)[C@@H]1CCCN(N1)C(=O)[C@@H](NC(=O)[C@H](C(C)C)N(C)C(=O)C1CN(C(=O)CCl)C1)Cc1cc(O)cc-3c1 [Compound 168] |
| 0.5 to 5 | ≤ 5 | C=CC(=O)N1CCN([C@H](C(=O)N[C@H]2Cc3cc(O)cc(c3)-c3ccc4nc(CC)n(c4c3)CCCOC(=O)[C@@H]3CCCN(N3)C2=O)C(C)C)C1=O [Compound 141] |
| 0.5 to 5 | ≤ 5 | C=CC(=O)N1CCN(C(C(=O)NC2Cc3cc(O)cc(c3)-c3ccc4c(C#N)cn(c4c3)CCCOC(=O)C3CCCN(N3)C2=O)C(C)C)C1=O (stereo not drawn) [Compound 94] |
| 0.5 to 5 | ≤ 5 | C=CC(=O)N1CCN([C@H](C(=O)N[C@H]2Cc3cc(O)cc(c3)-c3ccc4c(CC#N)cn(c4c3)CCCOC(=O)[C@@H]3CCCN(N3)C2=O)C(C)C)C1=O [Compound 96] |
| 0.5 to 5 | 5 to 15 | Cc1nc2ccc3cc2n1CC(C)(C)COC(=O)[C@@H]1CCCN(N1)C(=O)[C@@H](NC(=O)[C@H](C(C)C)N(C)C(=O)CNC(=O)CCl)Cc1cc(O)cc-3c1 [Compound 150] |

Reference: patent US20240139185A1, “COMPOUNDS THAT PARTICIPATE IN COOPERATIVE BINDING AND USES THEREOF” (Revolution Medicines, Inc., priority 2018, published 2024)
